Assay: recombinant UMI read abundance after kanamycin selection (control-corrected) (log10(CPM+1)); higher = more efficient recombination; extreme values may be limits of the assay; sequences stand for … in AGTGCAGAGAAAATCGGCCAGTTTTCTCTGCCTGCAGTCCGCATGCCGTGGGACCCCTTGGGTTCTAACCTGTTGCCTAGATTTATGCAGCGGACTGCCTTTCTCCCAAAGTGATAAACCGG…AGGTTGGTTTCACT; site = the 11-nt donor
Outline: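 Two replicates each of selected and unselected plating were used in this pooled Escherichia coli screen of donor and donor-binding-loop pairs for the IS621 bridge recombinase. Selection was with IPTG (0.07 mM) and kanamycin. Counts of recombinant UMIs, amplified across the donor–target junction, were converted to CPM, averaged, scaled by control-derived factors and reported as log10(CPM+1).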
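Further: IS621 bridge recombinase in Escherichia coli cells against a fixed T5 target plasmid.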

Row | Sequence | recombinant UMI read abundance (log10)
1 | TACTTGGCATGGACCGGTTTTCCCGGTAATCCGTATTTGGA (site GACTTGGCTTC) | 0.00882
2 | CGCCGTACATGGACCGGTTTTCCCGGTAATCCGTATTTGCA (site CGCCGTACTTG) | 2.07
3 | GCGATGCCATGGACCGGTTTTCCCGGTAATCCGTATTTGGG (site GCGACGCCTCC) | 0.0196
4 | ATCCAAGCATGGACCGGTTTTCCCGGTAATCCGTATTTGGG (site ATCCAAGCTCA) | 0.0113
5 | CGAGGGACATGGACCGGTTTTCCCGGTAATCCGTATTTGTC (site CGAGGGACTGA) | 2.59
6 | TGTGCACCATGGACCGGTTTTCCCGGTAATCCGTATTTGAC (site TGTACACCTGT) | 0
7 | TACTTTACATGGACCGGTTTTCCCGGTAATCCGTATTTGCT (site TACTTAACTAG) | 0
8 | AAGTAATCATGGACCGGTTTTCCCGGTAATCCGTATTTGAG (site AAGTAATCTCT) | 2.78
9 | GCCCCTTCATGGACCGGTTTTCCCGGTAATCCGTATTTGGG (site GCCCCTTCTCC) | 0.712
10 | TGTCAGACATGGACCGGTTTTCCCGGTAATCCGTATTTGTG (site TGTCAGACTCA) | 0.0321
11 | AGCATTGCATGGACCGGTTTTCCCGGTAATCCGTATTTGAA (site AGCATTGCTTT) | 2.4
12 | TACGTGACATGGACCGGTTTTCCCGGTAATCCGTATTTGCA (site TACGTGACTTG) | 2.29
13 | GAAAAGGCATGGACCGGTTTTCCCGGTAATCCGTATTTGTT (site GAAAAGGCTAA) | 2.58
14 | CGATAGACATGGACCGGTTTTCCCGGTAATCCGTATTTGAG (site CGGTAGACTCT) | 0.902
15 | AAATGCTCATGGACCGGTTTTCCCGGTAATCCGTATTTGAA (site CAATGCTCTTT) | 1.65
16 | GTAGGATCATGGACCGGTTTTCCCGGTAATCCGTATTTGAC (site CTAGTATCTGT) | 0.851

Row | Sequence | recombinant UMI read abundance (log10)
17 | CACAAATCATGGACCGGTTTTCCCGGTAATCCGTATTTGAC (site CACAAATCTGT) | 1.62
18 | CCGTTAACATGGACCGGTTTTCCCGGTAATCCGTATTTGTG (site CCGTTACCTCA) | 0.0226
19 | AAGAAGACATGGACCGGTTTTCCCGGTAATCCGTATTTGCA (site AAGAAGACTTG) | 2.73
20 | GGGCAGACATGGACCGGTTTTCCCGGTAATCCGTATTTGCA (site GGGCAGACTTG) | 2.58
21 | AGTCCTTCATGGACCGGTTTTCCCGGTAATCCGTATTTGGG (site AGTCCTTCTCC) | 0.0141
22 | CGGAACCCATGGACCGGTTTTCCCGGTAATCCGTATTTGTT (site CGGAACCCTAA) | 0.964
23 | CAAAGCTCATGGACCGGTTTTCCCGGTAATCCGTATTTGAA (site CAATGCTCTTT) | 0.0194
24 | ACAAATCCATGGACCGGTTTTCCCGGTAATCCGTATTTGAC (site ACAGATCCTGT) | 0
25 | GTAGTCGCATGGACCGGTTTTCCCGGTAATCCGTATTTGCG (site GTAGTCTCTCG) | 2
26 | TAAGTCACATGGACCGGTTTTCCCGGTAATCCGTATTTGGG (site AAAGTCACTCC) | 0.0244
27 | CAGGCAGCATGGACCGGTTTTCCCGGTAATCCGTATTTGCT (site CAAGCAGCTAG) | 1.66
28 | ATGGCATCATGGACCGGTTTTCCCGGTAATCCGTATTTGCT (site ATGGCATCTAG) | 1.83
29 | TGGGTGCCATGGACCGGTTTTCCCGGTAATCCGTATTTGAC (site TGGGTGCCTGT) | 0
30 | CACAGCCCATGGACCGGTTTTCCCGGTAATCCGTATTTGTT (site CACGGCCCTAA) | 0.0224
31 | CAATGCACATGGACCGGTTTTCCCGGTAATCCGTATTTGAA (site CAATGCGCTTT) | 0.409
32 | AATGTGTCATGGACCGGTTTTCCCGGTAATCCGTATTTGAC (site AATGTCTCTGT) | 0

— the supplement of paper PMC11208160
